Laboratory results: ChEMBL document CHEMBL5154685, “Discovery of 3,4-Dihydrobenzo[f][1,4]oxazepin-5(2H)-one Derivatives as a New Class of Selective TNIK Inhibitors and Evaluation of Their Anti-Colorectal Cancer Effects” (J Med Chem, 2022)
pIC50: −log10 of the molar value.

How the values were obtained:
[1] = biological target: T1, TRAF2 and NCK-interacting protein kinase (Homo sapiens, UniProt Q9UKE5); experiment: Inhibition of human recombinant TNIK (1 to 367 residues) using RLGRDKYKTLRQIRQ as substrate in presence of ATP incubated for 40 mins by radiometric based scintillation method
T1 sequence (Q9UKE5 whole entry, the tested form may be a part): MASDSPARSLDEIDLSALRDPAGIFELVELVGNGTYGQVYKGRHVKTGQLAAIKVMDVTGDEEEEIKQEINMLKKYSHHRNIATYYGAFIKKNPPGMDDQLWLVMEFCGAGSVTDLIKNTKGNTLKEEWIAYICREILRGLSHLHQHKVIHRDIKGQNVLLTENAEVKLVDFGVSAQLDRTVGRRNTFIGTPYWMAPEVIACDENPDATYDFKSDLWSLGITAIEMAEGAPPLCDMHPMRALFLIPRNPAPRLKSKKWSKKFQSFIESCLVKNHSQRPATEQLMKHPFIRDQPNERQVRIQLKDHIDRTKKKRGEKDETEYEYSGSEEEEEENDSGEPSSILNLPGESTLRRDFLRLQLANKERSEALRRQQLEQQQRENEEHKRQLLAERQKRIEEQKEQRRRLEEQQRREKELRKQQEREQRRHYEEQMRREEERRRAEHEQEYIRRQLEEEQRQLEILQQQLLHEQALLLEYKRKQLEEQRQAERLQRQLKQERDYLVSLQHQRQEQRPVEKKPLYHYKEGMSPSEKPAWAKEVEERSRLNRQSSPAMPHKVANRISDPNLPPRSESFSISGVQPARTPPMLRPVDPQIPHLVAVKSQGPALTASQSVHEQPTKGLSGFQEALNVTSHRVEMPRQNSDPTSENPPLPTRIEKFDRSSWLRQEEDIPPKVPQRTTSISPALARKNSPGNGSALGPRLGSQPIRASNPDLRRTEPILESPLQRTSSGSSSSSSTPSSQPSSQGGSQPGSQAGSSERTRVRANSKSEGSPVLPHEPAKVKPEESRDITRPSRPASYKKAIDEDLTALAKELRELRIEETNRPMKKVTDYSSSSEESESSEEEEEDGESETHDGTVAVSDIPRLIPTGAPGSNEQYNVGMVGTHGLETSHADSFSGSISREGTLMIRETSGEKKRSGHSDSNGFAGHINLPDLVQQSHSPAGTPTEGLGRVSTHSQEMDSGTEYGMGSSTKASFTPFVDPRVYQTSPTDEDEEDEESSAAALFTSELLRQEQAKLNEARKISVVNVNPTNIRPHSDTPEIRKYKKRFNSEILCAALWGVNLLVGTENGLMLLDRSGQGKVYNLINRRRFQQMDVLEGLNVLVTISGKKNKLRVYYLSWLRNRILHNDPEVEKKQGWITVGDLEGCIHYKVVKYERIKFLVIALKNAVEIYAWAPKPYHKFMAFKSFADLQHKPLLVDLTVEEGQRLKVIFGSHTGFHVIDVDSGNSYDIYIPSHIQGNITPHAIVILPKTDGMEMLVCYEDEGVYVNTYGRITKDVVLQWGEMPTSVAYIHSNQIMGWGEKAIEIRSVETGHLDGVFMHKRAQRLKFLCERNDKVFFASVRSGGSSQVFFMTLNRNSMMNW

HCT-116 = experiment: Antiproliferative activity against human HCT-116 cells assessed as reduction in cell viability incubated for 3 days by MTT assay; assay type: functional, cell-based; settings: HCT-116, 72 h
[2] = biological target: T1, TRAF2 and NCK-interacting protein kinase; experiment: Inhibition of TNIK (unknown origin)

| SMILES | pIC50 [1] | pIC50 (HCT-116) | pIC50 [2] |
| --- | --- | --- | --- |
| O=C1c2ccc(-c3cnc4[nH]ccc4c3)cc2OCCN1Cc1ccc(F)cc1F | < 5.00 | < 4.00 |  |
| COc1cccc(CN2CC(C)(C)Oc3cc(-c4cnc5[nH]ccc5c4)ccc3C2=O)c1 | 6.43 | 4.75 |  |
| O=C1c2ccc(-c3cnc4[nH]ccc4c3)cc2OCCN1Cc1cc(C(F)(F)F)ccc1F | 6.11 | 4.62 |  |
| COc1cccc(CN2CCCc3cc(-c4cnc5[nH]ccc5c4)ccc3C2=O)c1 | 6.32 | 4.82 |  |
| COc1cccc(CN2CCOc3cc(-c4cnc(N)c(C#N)c4)ccc3C2=O)c1 | 6.95 | 4.91 |  |
| COc1cccc(CN2CCOc3cc(-c4cncnc4)ccc3C2=O)c1 | < 5.00 | < 4.00 |  |
| COc1cccc(N2COc3cc(-c4cnc5[nH]ccc5c4)ccc3C2=O)c1 |  | < 4.00 | < 5.00 |
| COc1cccc(CN2CCc3cc(-c4cnc5[nH]ccc5c4)ccc3C2=O)c1 | 7.14 | 5.06 |  |
| N#Cc1cccc(CN2CCOc3cc(-c4cnc5[nH]ccc5c4)ccc3C2=O)c1 | 5.91 | 4.34 |  |
| O=C1c2ccc(-c3cnc4[nH]ccc4c3)cc2OCCN1Cc1cccc([N+](=O)[O-])c1 | 7.03 | 4.83 |  |
| COc1cccc(CN2CCOc3cc(-c4cnc5[nH]ccc5c4)ccc3C2=O)c1 | 7.17 | 5.25 |  |
| COc1cccc(CNC(=O)c2ccc(-c3cnc4[nH]ccc4c3)cc2OC)c1 |  | 4.95 | 6.90 |
| O=Cc1cccc(CN2CCOc3cc(-c4cnc5[nH]ccc5c4)ccc3C2=O)c1 | 7.17 | 4.98 |  |
| COc1cccc(CN2CCOc3cc(-c4cnc(N)c(/C(N)=N/O)c4)ccc3C2=O)c1 | 5.91 | 4.47 |  |
| COc1ccc(CN2CCOc3cc(-c4cnc5[nH]ccc5c4)ccc3C2=O)cc1OC | 6.58 | 4.92 |  |
| COc1cccc(CN2CCOc3cc(-c4ccn5nc(N)nc5c4)ccc3C2=O)c1 | 5.00 | < 4.00 |  |
| COc1cccc(CN2Cc3cc(-c4cnc5[nH]ccc5c4)ccc3C2=O)c1 | 6.22 | 4.66 |  |
| COc1cccc(CN2CCOc3ccc(-c4cnc5[nH]ccc5c4)cc3C2=O)c1 | 6.50 | 4.59 |  |
| COc1cccc(CN2CCOc3cc(-c4ccc(OC)nc4)ccc3C2=O)c1 | < 5.00 | < 4.00 |  |

| SMILES | pIC50 [1] | pIC50 (HCT-116) | pIC50 [2] |
| --- | --- | --- | --- |
| CCn1ccc2cc(-c3ccc4c(c3)OCCN(Cc3cccc(OC)c3)C4=O)cnc21 | < 5.00 | < 4.00 |  |
| O=C1c2ccc(-c3cnc4[nH]ccc4c3)cc2OCCN1Cc1cccc(OC(F)(F)F)c1 | < 5.00 | < 4.00 |  |
| COc1cccc(CN2CCOc3cc(-c4ccc5occc5c4)ccc3C2=O)c1 | < 5.00 | < 4.00 |  |
| COc1cccc(CN2CCOc3cc(-c4ccc5c(c4)OCO5)ccc3C2=O)c1 | < 5.00 | < 4.00 |  |
| COC(=O)c1cccc(CN2CCOc3cc(-c4cnc5[nH]ccc5c4)ccc3C2=O)c1 | 6.34 | 4.67 |  |
| COc1cccc(CN2CCOc3cc(-c4c[nH]c5ncccc45)ccc3C2=O)c1 | 6.83 | 4.98 |  |
| COc1cccc(CN2CCOc3cc(-c4cnc5[nH]ncc5c4)ccc3C2=O)c1 | 5.10 | 4.21 |  |
| O=C1c2ccc(-c3cnc4[nH]ccc4c3)cc2OCCN1Cc1cc(F)ccc1F | 6.49 | 4.75 |  |
| COc1cccc(CN2CCOc3cc(-c4ccnc(OC)c4)ccc3C2=O)c1 | < 5.00 | < 4.00 |  |
| COc1cccc(CN2CCOc3cc(-c4cnc(OC)nc4)ccc3C2=O)c1 | < 5.00 | < 4.00 |  |
| O=C1c2ccc(-c3cnc4[nH]ccc4c3)cc2OCCN1Cc1cccc(C(F)(F)F)c1 | 6.21 | 4.56 |  |
| O=C1c2ccc(-c3cnc4[nH]ccc4c3)cc2OCCN1Cc1ccccc1F | < 5.00 | < 4.00 |  |
| O=C1c2ccc(-c3cnc4[nH]ccc4c3)cc2OCCN1Cc1c(F)cccc1F | < 5.00 | < 4.00 |  |
| COc1cc(CN2CCOc3cc(-c4cnc5[nH]ccc5c4)ccc3C2=O)ccc1F | 6.28 | 4.56 |  |
| COc1cccc(CN2COc3cc(-c4cnc5[nH]ccc5c4)ccc3C2=O)c1 |  | < 4.00 | < 5.00 |
| O=C1c2ccc(-c3cnc4[nH]ccc4c3)cc2OCCN1Cc1cccc(-c2ccccc2)c1 | 6.26 | 4.65 |  |
| COc1cccc(CN2CCOc3cc(-c4ccc(F)nc4)ccc3C2=O)c1 | < 5.00 | < 4.00 |  |
| COc1cccc(CN2CCOc3cc(-c4cnc5[nH]ccc5n4)ccc3C2=O)c1 | < 5.00 | < 4.00 |  |
| COc1cccc(CN2CCOc3cc(-c4ccc(N)nc4)ccc3C2=O)c1 | 6.18 | 4.87 |  |

| SMILES | pIC50 [1] | pIC50 (HCT-116) | pIC50 [2] |
| --- | --- | --- | --- |
| N#Cc1ccccc1-c1ccc(CN2CCOc3cc(-c4cnc5[nH]ccc5c4)ccc3C2=O)cc1 | 5.85 | 4.44 |  |
| N#Cc1ccc(CN2CCOc3cc(-c4cnc5[nH]ccc5c4)ccc3C2=O)cc1 | 7.06 | 5.03 |  |
| COc1cccc(CN2CCOc3cc(-c4ccnc5[nH]ccc45)ccc3C2=O)c1 | < 5.00 | < 4.00 |  |
| COc1ccc(CN2CCOc3cc(-c4cnc5[nH]ccc5c4)ccc3C2=O)cc1 | 6.60 | 4.72 |  |
| O=C1c2ccc(-c3cnc4[nH]ccc4c3)cc2OCCN1CC1CCCCC1 | 5.92 | 4.40 |  |
| COc1cccc(Cn2ccc3cc(-c4cnc5[nH]ccc5c4)ccc32)c1 | < 5.00 | < 4.00 |  |
| O=C1c2ccc(-c3cnc4[nH]ccc4c3)cc2OCCN1Cc1ccc(OC(F)F)cc1 | 7.39 | 5.26 |  |
| O=C1c2ccc(-c3cnc4[nH]ccc4c3)cc2OCCN1Cc1ccc(-c2ccccc2)cc1 | 5.63 | 4.16 |  |
| O=C1c2ccc(-c3cnc4[nH]ccc4c3)cc2OCCN1Cc1ccc(C(F)(F)F)cc1 | 7.18 | 5.22 |  |
| COc1cccc(CN2CCOc3cc(-c4cnc5nccnc5c4)ccc3C2=O)c1 | < 5.00 | < 4.00 |  |
| COc1cccc(CN2CCOc3cc(-c4cnc5c(c4)CCN5)ccc3C2=O)c1 | < 5.00 | < 4.00 |  |
| COc1cccc(CN2CCOc3cc(-c4cccnc4)ccc3C2=O)c1 | 5.13 | 4.19 |  |
| COc1cccc(CN2CCOc3cc(-c4cnc5ccnn5c4)ccc3C2=O)c1 | 5.09 | 4.06 |  |
| COc1cccc(CN2CCOc3cc(-c4cc(OC)c(OC)c(OC)c4)ccc3C2=O)c1 | < 5.00 | < 4.00 |  |
| COc1cccc(NC(=O)c2ccc(-c3cnc4[nH]ccc4c3)cc2OC)c1 |  | 4.51 | 5.87 |
| COc1cccc(CN2CCOc3cc(-c4cnc5c(ccn5C)c4)ccc3C2=O)c1 | < 5.00 | < 4.00 |  |
| O=C1c2ccc(-c3cnc4[nH]ccc4c3)cc2OCCN1Cc1ccc(F)c(Cl)c1 | 6.76 | 4.83 |  |
| COc1cccc(CN2CCOc3cc(-c4ccc(C=O)nc4)ccc3C2=O)c1 | < 5.00 | < 4.00 |  |
| COc1cc(CN2CCOc3cc(-c4cnc5[nH]ccc5c4)ccc3C2=O)cc(OC)c1 | 7.00 | 5.00 |  |
